What was measured:
Assay in all cases: biochemical
Assay type in all cases: binding
panel of 442 kinases [1] = target: T1, panel of 442 kinases (Homo sapiens, UniProt Q05397); settings: FAK; for remaining activity at 1 µM: read-out: % of control at 1 µM
T1 construct: purchased Ambit Biosciences (scanMAXX KINOMEscan)

panel of 442 kinases [2] = target: T2, panel of 442 kinases (Homo sapiens, UniProt Q9Y243); settings: AKT3; for remaining activity at 1 µM: read-out: % of control at 1 µM
T2 construct: purchased Ambit Biosciences (scanMAXX KINOMEscan)
T2 sequence (Q9Y243 whole entry): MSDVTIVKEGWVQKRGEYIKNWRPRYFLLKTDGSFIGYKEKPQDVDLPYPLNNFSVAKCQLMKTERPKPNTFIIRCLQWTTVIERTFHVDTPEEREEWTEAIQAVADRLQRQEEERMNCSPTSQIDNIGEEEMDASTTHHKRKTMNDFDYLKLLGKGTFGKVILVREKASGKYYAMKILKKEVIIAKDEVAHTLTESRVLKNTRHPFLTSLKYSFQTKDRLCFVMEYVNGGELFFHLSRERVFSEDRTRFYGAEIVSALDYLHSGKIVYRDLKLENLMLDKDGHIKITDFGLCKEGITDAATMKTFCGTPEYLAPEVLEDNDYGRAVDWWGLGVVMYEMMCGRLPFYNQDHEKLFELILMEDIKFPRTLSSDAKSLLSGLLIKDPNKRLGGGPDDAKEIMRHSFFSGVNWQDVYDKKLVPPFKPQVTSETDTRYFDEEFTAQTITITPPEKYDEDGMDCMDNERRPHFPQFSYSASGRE

panel of 442 kinases [3] = target: T3, panel of 442 kinases (Homo sapiens, UniProt P51451); settings: BLK; for remaining activity at 1 µM: read-out: % of control at 1 µM
T3 construct: purchased Ambit Biosciences (scanMAXX KINOMEscan)
T3 sequence (P51451 whole entry): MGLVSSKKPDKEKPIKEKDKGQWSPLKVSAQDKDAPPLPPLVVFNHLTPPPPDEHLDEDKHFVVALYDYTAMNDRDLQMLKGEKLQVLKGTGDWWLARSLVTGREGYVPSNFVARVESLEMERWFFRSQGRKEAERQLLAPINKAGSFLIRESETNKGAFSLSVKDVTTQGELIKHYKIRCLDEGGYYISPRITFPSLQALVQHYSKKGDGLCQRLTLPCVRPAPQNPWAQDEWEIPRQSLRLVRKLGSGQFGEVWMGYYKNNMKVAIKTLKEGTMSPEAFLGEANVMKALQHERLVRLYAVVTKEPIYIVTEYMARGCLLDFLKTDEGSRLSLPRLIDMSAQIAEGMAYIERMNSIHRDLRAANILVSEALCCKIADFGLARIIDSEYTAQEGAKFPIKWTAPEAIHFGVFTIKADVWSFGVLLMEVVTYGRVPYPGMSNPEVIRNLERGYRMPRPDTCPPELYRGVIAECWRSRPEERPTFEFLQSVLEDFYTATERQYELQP

panel of 442 kinases [4] = target: T4, panel of 442 kinases (Homo sapiens, UniProt Q96NX5); settings: CAMK1G; for remaining activity at 1 µM: read-out: % of control at 1 µM
T4 construct: purchased Ambit Biosciences (scanMAXX KINOMEscan)

panel of 442 kinases [5] = target: T5, panel of 442 kinases (Homo sapiens, UniProt P57059); settings: kinase SIK; for remaining activity at 1 µM: read-out: SIK (% of control at 1 µM)
T5 construct: purchased Ambit Biosciences (scanMAXX KINOMEscan)
T5 sequence (P57059 whole entry): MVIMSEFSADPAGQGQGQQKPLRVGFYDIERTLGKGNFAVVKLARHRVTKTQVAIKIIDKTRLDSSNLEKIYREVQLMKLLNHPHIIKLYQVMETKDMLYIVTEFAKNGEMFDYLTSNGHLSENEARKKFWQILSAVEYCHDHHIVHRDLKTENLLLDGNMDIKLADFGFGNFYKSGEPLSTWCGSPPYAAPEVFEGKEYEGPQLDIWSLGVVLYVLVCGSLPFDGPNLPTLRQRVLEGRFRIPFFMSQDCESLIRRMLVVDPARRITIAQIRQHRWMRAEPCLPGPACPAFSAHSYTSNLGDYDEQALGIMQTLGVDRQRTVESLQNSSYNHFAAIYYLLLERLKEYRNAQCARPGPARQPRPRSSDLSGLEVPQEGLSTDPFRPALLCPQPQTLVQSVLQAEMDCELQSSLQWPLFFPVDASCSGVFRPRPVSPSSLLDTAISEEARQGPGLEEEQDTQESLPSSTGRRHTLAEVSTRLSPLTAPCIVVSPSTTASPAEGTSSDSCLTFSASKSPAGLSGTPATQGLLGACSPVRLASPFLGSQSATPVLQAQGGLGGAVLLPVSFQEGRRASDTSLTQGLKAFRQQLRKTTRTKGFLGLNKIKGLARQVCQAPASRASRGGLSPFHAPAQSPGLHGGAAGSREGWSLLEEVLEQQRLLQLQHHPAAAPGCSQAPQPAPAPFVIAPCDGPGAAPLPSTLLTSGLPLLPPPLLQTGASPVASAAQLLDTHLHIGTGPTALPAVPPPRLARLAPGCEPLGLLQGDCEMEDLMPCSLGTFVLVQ

panel of 442 kinases [6] = target: T6, panel of 442 kinases (Homo sapiens, UniProt Q9Y6M4); settings: CSNK1G3; for remaining activity at 1 µM: read-out: % of control at 1 µM
T6 construct: purchased Ambit Biosciences (scanMAXX KINOMEscan)

panel of 442 kinases [7] = target: T7, panel of 442 kinases (Homo sapiens, UniProt Q8WU08); settings: kinase YANK1; for remaining activity at 1 µM: read-out: YANK1 (% of control at 1 µM)
T7 construct: purchased Ambit Biosciences (scanMAXX KINOMEscan)
T7 sequence (Q8WU08 whole entry): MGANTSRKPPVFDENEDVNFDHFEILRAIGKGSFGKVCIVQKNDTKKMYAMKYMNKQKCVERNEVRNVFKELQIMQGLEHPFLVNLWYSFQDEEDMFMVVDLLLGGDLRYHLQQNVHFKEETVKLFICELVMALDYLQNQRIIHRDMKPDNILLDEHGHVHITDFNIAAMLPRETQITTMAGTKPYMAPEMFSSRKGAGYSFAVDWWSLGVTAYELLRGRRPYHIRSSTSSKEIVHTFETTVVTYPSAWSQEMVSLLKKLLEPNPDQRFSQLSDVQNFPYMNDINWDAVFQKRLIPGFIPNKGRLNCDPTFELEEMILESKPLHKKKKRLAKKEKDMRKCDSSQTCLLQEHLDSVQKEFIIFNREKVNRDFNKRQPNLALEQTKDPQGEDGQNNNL

panel of 442 kinases [8] = target: T8, panel of 442 kinases (Homo sapiens, UniProt P16234); settings: kinase PDGFRA; for remaining activity at 1 µM: read-out: % of control at 1 µM
T8 construct: purchased Ambit Biosciences (scanMAXX KINOMEscan)
T8 sequence (P16234 24-1089): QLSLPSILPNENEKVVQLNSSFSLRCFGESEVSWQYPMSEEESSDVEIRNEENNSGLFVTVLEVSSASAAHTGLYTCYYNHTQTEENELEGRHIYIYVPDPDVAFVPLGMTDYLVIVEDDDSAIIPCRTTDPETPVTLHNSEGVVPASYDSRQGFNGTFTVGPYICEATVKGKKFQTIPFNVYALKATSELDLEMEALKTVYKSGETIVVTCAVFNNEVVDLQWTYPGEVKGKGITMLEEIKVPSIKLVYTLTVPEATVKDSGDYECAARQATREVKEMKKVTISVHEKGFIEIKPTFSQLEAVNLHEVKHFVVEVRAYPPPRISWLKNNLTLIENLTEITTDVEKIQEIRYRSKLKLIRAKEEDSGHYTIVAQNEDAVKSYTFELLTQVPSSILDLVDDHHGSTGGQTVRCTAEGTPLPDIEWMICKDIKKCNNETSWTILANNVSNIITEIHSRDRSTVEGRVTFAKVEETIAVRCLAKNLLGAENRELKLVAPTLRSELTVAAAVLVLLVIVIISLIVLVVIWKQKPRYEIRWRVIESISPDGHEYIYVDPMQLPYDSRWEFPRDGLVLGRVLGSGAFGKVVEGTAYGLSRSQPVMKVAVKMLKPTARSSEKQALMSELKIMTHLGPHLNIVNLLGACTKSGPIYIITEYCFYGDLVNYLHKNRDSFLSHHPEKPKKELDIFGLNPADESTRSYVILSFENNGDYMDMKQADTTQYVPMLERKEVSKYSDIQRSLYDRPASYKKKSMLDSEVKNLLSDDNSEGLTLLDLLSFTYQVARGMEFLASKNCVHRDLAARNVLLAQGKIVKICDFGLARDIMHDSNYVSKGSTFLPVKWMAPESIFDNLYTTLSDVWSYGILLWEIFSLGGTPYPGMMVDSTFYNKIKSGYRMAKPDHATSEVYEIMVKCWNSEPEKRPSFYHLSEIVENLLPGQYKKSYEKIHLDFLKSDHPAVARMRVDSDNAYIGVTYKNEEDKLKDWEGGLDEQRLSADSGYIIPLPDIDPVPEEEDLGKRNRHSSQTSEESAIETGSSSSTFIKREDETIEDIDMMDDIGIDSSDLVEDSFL

panel of 442 kinases [9] = target: T9, panel of 442 kinases (Homo sapiens, UniProt P36888); settings: FLT3; for remaining activity at 1 µM: read-out: % of control at 1 µM
T9 construct: purchased Ambit Biosciences (scanMAXX KINOMEscan)
T9 sequence (P36888 27-993): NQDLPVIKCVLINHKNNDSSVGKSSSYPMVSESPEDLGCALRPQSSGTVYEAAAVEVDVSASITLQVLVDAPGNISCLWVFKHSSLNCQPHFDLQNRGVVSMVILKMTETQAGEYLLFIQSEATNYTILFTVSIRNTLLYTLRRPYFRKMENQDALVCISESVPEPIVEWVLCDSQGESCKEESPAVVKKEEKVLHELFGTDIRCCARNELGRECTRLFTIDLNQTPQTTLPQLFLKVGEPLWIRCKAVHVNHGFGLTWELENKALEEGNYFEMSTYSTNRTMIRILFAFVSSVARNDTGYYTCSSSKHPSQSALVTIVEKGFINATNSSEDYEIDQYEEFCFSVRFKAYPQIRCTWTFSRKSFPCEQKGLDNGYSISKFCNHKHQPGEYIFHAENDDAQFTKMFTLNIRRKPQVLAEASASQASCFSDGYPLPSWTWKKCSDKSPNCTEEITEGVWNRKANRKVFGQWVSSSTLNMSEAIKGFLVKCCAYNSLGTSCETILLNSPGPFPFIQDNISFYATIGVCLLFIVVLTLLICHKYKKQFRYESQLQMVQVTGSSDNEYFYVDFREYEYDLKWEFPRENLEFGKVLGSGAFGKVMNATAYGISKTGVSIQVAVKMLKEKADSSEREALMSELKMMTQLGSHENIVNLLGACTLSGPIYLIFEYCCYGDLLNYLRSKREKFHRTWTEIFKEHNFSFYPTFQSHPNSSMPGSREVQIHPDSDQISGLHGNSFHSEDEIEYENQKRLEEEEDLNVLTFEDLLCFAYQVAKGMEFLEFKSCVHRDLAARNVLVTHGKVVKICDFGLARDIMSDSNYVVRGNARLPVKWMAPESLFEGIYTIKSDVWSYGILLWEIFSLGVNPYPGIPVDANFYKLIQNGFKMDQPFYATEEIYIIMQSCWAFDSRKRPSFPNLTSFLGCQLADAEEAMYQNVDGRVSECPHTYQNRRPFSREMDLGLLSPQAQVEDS

panel of 442 kinases [10] = target: T10, panel of 442 kinases (Homo sapiens, UniProt Q9H2X6); settings: kinase HIPK2; for remaining activity at 1 µM: read-out: % of control at 1 µM
T10 construct: purchased Ambit Biosciences (scanMAXX KINOMEscan)

panel of 442 kinases [11] = target: T11, panel of 442 kinases (Homo sapiens, UniProt Q9Y6R4); settings: kinase MAP3K4; for remaining activity at 1 µM: read-out: % of control at 1 µM
T11 construct: purchased Ambit Biosciences (scanMAXX KINOMEscan)
T11 sequence (Q9Y6R4 whole entry): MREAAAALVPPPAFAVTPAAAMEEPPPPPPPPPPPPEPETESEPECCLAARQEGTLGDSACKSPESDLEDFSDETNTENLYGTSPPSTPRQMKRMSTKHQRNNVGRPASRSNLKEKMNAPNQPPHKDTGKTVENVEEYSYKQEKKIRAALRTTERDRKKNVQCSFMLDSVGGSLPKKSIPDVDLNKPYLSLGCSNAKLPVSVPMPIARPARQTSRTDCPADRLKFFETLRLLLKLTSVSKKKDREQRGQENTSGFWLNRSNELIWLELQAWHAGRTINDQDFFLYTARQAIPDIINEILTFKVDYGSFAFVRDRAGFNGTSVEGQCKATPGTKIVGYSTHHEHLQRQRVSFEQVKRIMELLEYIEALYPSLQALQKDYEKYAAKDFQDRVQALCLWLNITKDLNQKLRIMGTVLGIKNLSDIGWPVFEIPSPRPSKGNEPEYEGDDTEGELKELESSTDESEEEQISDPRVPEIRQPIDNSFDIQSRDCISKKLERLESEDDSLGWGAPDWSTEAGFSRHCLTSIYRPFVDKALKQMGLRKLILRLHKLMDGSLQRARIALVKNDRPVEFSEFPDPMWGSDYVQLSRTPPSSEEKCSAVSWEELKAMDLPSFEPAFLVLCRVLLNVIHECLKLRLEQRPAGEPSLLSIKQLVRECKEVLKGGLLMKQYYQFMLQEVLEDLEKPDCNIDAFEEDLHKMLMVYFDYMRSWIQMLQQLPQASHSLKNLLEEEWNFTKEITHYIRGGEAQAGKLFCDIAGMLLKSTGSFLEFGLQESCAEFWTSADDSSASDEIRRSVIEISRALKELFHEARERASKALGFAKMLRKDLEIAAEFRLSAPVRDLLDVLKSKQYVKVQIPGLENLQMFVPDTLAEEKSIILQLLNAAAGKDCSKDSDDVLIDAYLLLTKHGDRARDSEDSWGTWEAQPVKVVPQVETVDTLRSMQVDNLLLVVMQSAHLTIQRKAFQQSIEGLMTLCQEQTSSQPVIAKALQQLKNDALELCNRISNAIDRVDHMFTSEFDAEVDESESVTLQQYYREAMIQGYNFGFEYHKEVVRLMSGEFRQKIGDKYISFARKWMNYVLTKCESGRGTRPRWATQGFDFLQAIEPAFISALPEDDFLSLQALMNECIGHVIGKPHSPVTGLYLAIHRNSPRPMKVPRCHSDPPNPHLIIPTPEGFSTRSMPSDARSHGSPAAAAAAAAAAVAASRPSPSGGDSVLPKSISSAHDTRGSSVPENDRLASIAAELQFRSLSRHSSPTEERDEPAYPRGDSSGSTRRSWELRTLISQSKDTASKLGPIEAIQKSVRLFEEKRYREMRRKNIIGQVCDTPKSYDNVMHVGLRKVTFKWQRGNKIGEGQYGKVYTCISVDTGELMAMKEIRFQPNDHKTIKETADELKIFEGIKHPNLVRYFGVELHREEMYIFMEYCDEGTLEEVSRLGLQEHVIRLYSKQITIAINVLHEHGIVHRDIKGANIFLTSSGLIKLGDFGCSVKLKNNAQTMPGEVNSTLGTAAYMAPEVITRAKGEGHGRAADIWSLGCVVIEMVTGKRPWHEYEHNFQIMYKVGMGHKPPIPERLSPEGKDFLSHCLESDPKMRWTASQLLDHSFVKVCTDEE

panel of 442 kinases [12] = target: T12, panel of 442 kinases (Homo sapiens, UniProt P29322); settings: EPHA8; for remaining activity at 1 µM: read-out: % of control at 1 µM
T12 construct: purchased Ambit Biosciences (scanMAXX KINOMEscan)
T12 sequence (P29322 28-1005): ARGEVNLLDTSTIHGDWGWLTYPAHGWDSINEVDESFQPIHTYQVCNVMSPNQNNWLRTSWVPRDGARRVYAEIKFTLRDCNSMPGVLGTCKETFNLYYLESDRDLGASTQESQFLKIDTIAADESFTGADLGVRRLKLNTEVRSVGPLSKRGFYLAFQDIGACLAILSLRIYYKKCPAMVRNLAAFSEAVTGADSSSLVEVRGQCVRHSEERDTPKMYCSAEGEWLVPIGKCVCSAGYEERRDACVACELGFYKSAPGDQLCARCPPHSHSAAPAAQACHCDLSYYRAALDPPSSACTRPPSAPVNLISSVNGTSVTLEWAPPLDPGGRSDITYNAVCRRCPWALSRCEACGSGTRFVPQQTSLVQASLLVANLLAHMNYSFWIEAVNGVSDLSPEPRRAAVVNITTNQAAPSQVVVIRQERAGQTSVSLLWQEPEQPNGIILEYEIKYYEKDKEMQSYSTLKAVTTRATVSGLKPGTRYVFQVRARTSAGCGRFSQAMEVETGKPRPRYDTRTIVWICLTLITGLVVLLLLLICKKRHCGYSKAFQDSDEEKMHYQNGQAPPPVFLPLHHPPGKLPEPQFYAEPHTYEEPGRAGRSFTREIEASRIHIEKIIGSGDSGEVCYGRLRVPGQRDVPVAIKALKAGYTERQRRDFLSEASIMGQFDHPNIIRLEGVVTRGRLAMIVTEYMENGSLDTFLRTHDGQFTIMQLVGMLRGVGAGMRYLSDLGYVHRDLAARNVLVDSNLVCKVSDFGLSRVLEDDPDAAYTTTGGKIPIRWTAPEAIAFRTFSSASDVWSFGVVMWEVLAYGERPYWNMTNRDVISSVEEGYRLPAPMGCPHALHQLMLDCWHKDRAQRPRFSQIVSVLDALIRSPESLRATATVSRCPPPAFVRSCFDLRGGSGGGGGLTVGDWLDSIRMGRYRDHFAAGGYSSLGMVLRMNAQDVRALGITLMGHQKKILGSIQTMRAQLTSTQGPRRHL

[13] = 10 µM, read-out: % of control at 10 µM

Nc1cc(C(F)(F)F)c(-c2cc(N3CCOCC3)nc(N3CCOCC3)n2)cn1 [Buparlisib]
remaining activity at 1 µM (panel of 442 kinases [1]): 100% | remaining activity at 10 µM (panel of 442 kinases [1]; [13]): 100% | remaining activity at 1 µM (panel of 442 kinases [2]): 84% | remaining activity at 10 µM (panel of 442 kinases [2]; [13]): 92% | remaining activity at 1 µM (panel of 442 kinases [3]): 93% | remaining activity at 10 µM (panel of 442 kinases [3]; [13]): 100% | remaining activity at 1 µM (panel of 442 kinases [4]): 100% | remaining activity at 10 µM (panel of 442 kinases [4]; [13]): 100% | remaining activity at 1 µM (panel of 442 kinases [5]): 100% | remaining activity at 10 µM (panel of 442 kinases [5]; 10 µM, read-out: SIK (% of control at 10 µM)): 100% | remaining activity at 1 µM (panel of 442 kinases [6]): 100% | remaining activity at 10 µM (panel of 442 kinases [6]; [13]): 100% | remaining activity at 1 µM (panel of 442 kinases [7]): 100% | remaining activity at 10 µM (panel of 442 kinases [7]; 10 µM, read-out: YANK1 (% of control at 10 µM)): 100% | remaining activity at 1 µM (panel of 442 kinases [8]): 100% | remaining activity at 10 µM (panel of 442 kinases [8]; [13]): 100% | remaining activity at 1 µM (panel of 442 kinases [9]): 90% | remaining activity at 10 µM (panel of 442 kinases [9]; [13]): 81% | remaining activity at 1 µM (panel of 442 kinases [10]): 100% | remaining activity at 10 µM (panel of 442 kinases [10]; [13]): 100% | remaining activity at 1 µM (panel of 442 kinases [11]): 92% | remaining activity at 10 µM (panel of 442 kinases [11]; [13]): 100% | remaining activity at 1 µM (panel of 442 kinases [12]): 100% | remaining activity at 10 µM (panel of 442 kinases [12]; [13]): 100%

Cn1c(=O)n(-c2ccc(C(C)(C)C#N)cc2)c2c3cc(-c4cnc5ccccc5c4)ccc3ncc21 [Dactolisib, 2-methyl-2-[4-(3-methyl-2-oxo-8-quinolin-3-yl-2,3-dihydroimidazo[4,5-c]quinolin-1-yl)-phenyl] propionitrile]
remaining activity at 1 µM (panel of 442 kinases [1]): 90% | remaining activity at 1 µM (panel of 442 kinases [2]): 84% | remaining activity at 1 µM (panel of 442 kinases [3]): 97% | remaining activity at 1 µM (panel of 442 kinases [4]): 87% | remaining activity at 1 µM (panel of 442 kinases [5]): 100% | remaining activity at 1 µM (panel of 442 kinases [6]): 72% | remaining activity at 1 µM (panel of 442 kinases [7]): 100% | remaining activity at 1 µM (panel of 442 kinases [8]): 100% | remaining activity at 1 µM (panel of 442 kinases [9]): 67% | remaining activity at 1 µM (panel of 442 kinases [10]): 64% | remaining activity at 1 µM (panel of 442 kinases [11]): 96% | remaining activity at 1 µM (panel of 442 kinases [12]): 94%

COc1ncc(-c2ccc3nccc(-c4ccnnc4)c3c2)cc1NS(=O)(=O)c1ccc(F)cc1F [Omipalisib]
remaining activity at 1 µM (panel of 442 kinases [1]): 94% | remaining activity at 1 µM (panel of 442 kinases [2]): 100% | remaining activity at 1 µM (panel of 442 kinases [3]): 94% | remaining activity at 1 µM (panel of 442 kinases [4]): 100% | remaining activity at 1 µM (panel of 442 kinases [5]): 100% | remaining activity at 1 µM (panel of 442 kinases [6]): 100% | remaining activity at 1 µM (panel of 442 kinases [7]): 100% | remaining activity at 1 µM (panel of 442 kinases [8]): 100% | remaining activity at 1 µM (panel of 442 kinases [9]): 100% | remaining activity at 1 µM (panel of 442 kinases [10]): 91% | remaining activity at 1 µM (panel of 442 kinases [11]): 100% | remaining activity at 1 µM (panel of 442 kinases [12]): 100%

FC(F)c1nc2ccccc2n1-c1nc(N2CCOCC2)nc(N2CCOCC2)n1 [ZSTK474, 2-(difluoromethyl)-1-[4,6-di(4-morpholinyl)-1,3,5-triazin-2-yl]-1H-benzimidazole]
remaining activity at 1 µM (panel of 442 kinases [1]): 90% | remaining activity at 1 µM (panel of 442 kinases [2]): 66% | remaining activity at 1 µM (panel of 442 kinases [3]): 100% | remaining activity at 1 µM (panel of 442 kinases [4]): 91% | remaining activity at 1 µM (panel of 442 kinases [5]): 100% | remaining activity at 1 µM (panel of 442 kinases [6]): 100% | remaining activity at 1 µM (panel of 442 kinases [7]): 100% | remaining activity at 1 µM (panel of 442 kinases [8]): 85% | remaining activity at 1 µM (panel of 442 kinases [9]): 100% | remaining activity at 1 µM (panel of 442 kinases [10]): 86% | remaining activity at 1 µM (panel of 442 kinases [11]): 97% | remaining activity at 1 µM (panel of 442 kinases [12]): 100%

From PMC5564600 (Oncotarget, 2017)
